The source of these data is patent publication US7683182B2, “Crystal forms of 2-(3-fluoro-4-hydroxyphenyl)-7-vinyl-1,3-benzoxazol-5-ol” (Wyeth LLC, priority 2005, dated 2010).

What all share (format): physicochemical
Data set [1] is described as follows: Dynamic vapor sorption (DVS), hygroscopicity. Particulars: for DVS gain: 0-90% RH; for Hygroscopicity (from DVS weight gain): DVS data of Table 2. From the text:
Dynamic Vapor Sorption (Allentown, Pa.) was used to measure the hygroscopicity of the anhydrate and monohydrate of the invention (see FIGS. 6 and 7). The step conditions were three hours each at 0%, 30%, 52.5%, 75% and 90% RH, two full cycles.

Data set [2] can be described thus: Stability, separate study of micronized and non-micronized anhydrate (XRPD).
A short description of data set [3]: Stability studies, long term (XRPD, TGA, HPLC). Particulars: non-micronized, three months. On the procedure:
Non-micronized samples of monohydrate and anhydrate were stored at 40° C./75% RH for three months. The monohydrate was also stored at 40° C. without humidity control. During the three months, the samples were checked after two weeks, one month, two months, and three months.

Data set [4] is described as follows: Stability studies, short term (XRPD).
Data set [5] in a line: Water solubility of the crystal forms. The settings on record: Table 2 data.
Data set [6] in a line: Stability studies, medium term (XRPD and TGA). On the procedure: Samples of monohydrate were stored at room temperature, 56° C., and 70° C. for one week. At room temperature, humidity was maintained at 0% RH. Humidity was not controlled for the higher temperatures.
The samples were analyzed by XRPD and TGA.

Setting [7] is: 40° C. without humidity control.

Turning to `C=Cc1cc(O)cc2nc(-c3ccc(O)c(F)c3)oc12` [Anhydrate, 2-(3-fluoro-4-hydroxyphenyl)-7-vinyl-1,3-benzoxazol-5-ol], the DVS gain in data set [1] is 0.2% gain (0-90% RH). The “Hygroscopicity (from DVS weight gain)” value in data set [1] was “largely non-hygroscopic”. In addition, the “Transformation to the monohydrate (XRPD)” value was “did not transform to the monohydrate” in data set [2] (micronized, 25° C./60% RH, three months); “partially transform to the monohydrate” in data set [2] (micronized, 40° C./75% RH, one month); “did not show any obvious transformation” in data set [2] (non-micronized, 40° C./75% RH). In addition, in data set [3] (40° C./75% RH), the “Chemical stability (HPLC)” value was “chemically stable”. For the same molecule, the “Transformation of crystal form (XRPD and TGA)” value in data set [3] (40° C./75% RH) is on record as “did not transform”.

For the molecule `C=Cc1cc(O)cc2nc(-c3ccc(O)c(F)c3)oc12` [Monohydrate, 2-(3-fluoro-4-hydroxyphenyl)-7-vinyl-1,3-benzoxazol-5-ol], the figures for the “Stability of crystal form (XRPD)” value in data set [4] (70° C. for one hour), in data set [4] (90° C. after one half hour) and in data set [4] (90° C. after one hour) were “stable”, “partially dehydrated” and “completely dehydrated”, respectively. Moreover, in data set [1], the DVS gain was 0.1% gain (0-90% RH). Also, the “Hygroscopicity (from DVS weight gain)” value in data set [1] is “largely non-hygroscopic”. In addition, the “Water solubility compared between the two forms” value in data set [5] is listed as “significantly lower solubility than the anhydrate”. In addition, the “Dehydration on storage (XRPD and TGA)” value in data set [6] (56° C., humidity not controlled, one week) was “no obvious dehydration”; in data set [6] (70° C., humidity not controlled, after 1 day) it was “no obvious hydration”; in data set [6] (70° C., humidity not controlled, after 4 days), “partially dehydrated”; in data set [6] (70° C., humidity not controlled, after 7 days), “mostly dehydrated”; in data set [6] (room temperature, 0% RH, one week) it was “no obvious dehydration”. For the same molecule, the “Chemical stability (HPLC)” value in data set [3] (setting [7]) and in data set [3] (40° C./75% RH) was “chemically stable” in each case. Also, the “Transformation of crystal form (XRPD and TGA)” value in data set [3] (setting [7]) and in data set [3] (40° C./75% RH) was “did not transform” each time.
